Results published in patent US8202893B2, “Cannabinergic lipid ligands” (University of Connecticut, priority 2004, dated 2012).
pKi: −log10 of the molar value. Like-named read-outs stand apart in the source and are kept apart here.

What was measured:
CB2 receptor = biological target: T1, CB2 receptor (Mus musculus, UniProt P47936); experiment: CB2 receptor binding, [3H]CP-55,940 displacement; conditions: mouse spleen membranes
T1 construct: membranes were prepared from frozen mouse spleen; from tissue; host or cells: mouse spleen
T1 sequence (P47936 whole entry): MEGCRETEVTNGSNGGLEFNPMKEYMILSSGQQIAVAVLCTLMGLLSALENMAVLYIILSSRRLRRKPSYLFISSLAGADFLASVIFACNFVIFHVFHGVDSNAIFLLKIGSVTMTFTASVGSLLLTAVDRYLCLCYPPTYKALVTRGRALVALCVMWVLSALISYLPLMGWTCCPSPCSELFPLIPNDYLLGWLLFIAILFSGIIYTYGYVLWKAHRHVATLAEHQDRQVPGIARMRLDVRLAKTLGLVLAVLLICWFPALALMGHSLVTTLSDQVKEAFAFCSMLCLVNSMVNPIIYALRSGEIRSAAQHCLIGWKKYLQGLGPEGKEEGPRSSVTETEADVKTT
Method: (§1) The treated membranes were subsequently used in the binding assay described below. Approximately 30 μg of membranes were incubated in silanized 96-well microtiter plate with TME containing 0.1% essentially fatty acid-free bovine serum albumin (BSA), 0.8 nM [^3H] CP-55,940, and various concentrations of test materials in a final volume of 200 μL. The assays were incubated for 1 hour at 30° C. and then immediately filtered using Packard Filtermate 196 harvester and Whatman GF/C filterplates and washed with wash buffer (TME) containing 0.5% BSA. Radioactivity was detected using MicroScint 20 scintillation cocktail added directly to the dried filterplates, and the filterplates were counted using a Packard Instruments Top-Count. Nonspecific binding was assessed using 100 nM CP-55,940. Data collected from three independent experiments performed with duplicate determinations was normalized between 100% and 0% specific binding for [^3H] CP-55,940, determined using buffer and 100 nM CP-55,940. The normalized data was analyzed using a 4-parameter nonlinear logistic equation to yield IC50 values.
For the CB2 receptor binding studies, membranes were prepared from frozen mouse spleen essentially according to the procedure of P. R. Dodd et al, A Rapid Method for Preparing Synaptosomes: Comparison with Alternative Procedures, Brain Res., 226, 107-118 (1981) which is incorporated by reference herein. Silanized centrifuge tubes were used throughout to minimize receptor loss due to adsorption. The CB2 binding assay was conducted in the same manner as for the CB1 binding assay. The binding affinities (Ki) were also expressed in nanomoles (nM).

[1] = biological target: T2, FAAH (fatty acid amide hydrolase) (Rattus norvegicus, UniProt P97612); experiment: FAAH screening: inhibition of anandamide metabolism to arachidonic acid; format: biochemical; conditions: 25 nmoles compound with 25 nmoles AEA, 75 μg enzyme, 250 μL, 15 min
T2 construct: Anandamide Amidase Activity in Rat Brain Microsomes; from tissue; host or cells: rat brain microsomes (by the cited procedure)
T2 sequence (P97612 1-579): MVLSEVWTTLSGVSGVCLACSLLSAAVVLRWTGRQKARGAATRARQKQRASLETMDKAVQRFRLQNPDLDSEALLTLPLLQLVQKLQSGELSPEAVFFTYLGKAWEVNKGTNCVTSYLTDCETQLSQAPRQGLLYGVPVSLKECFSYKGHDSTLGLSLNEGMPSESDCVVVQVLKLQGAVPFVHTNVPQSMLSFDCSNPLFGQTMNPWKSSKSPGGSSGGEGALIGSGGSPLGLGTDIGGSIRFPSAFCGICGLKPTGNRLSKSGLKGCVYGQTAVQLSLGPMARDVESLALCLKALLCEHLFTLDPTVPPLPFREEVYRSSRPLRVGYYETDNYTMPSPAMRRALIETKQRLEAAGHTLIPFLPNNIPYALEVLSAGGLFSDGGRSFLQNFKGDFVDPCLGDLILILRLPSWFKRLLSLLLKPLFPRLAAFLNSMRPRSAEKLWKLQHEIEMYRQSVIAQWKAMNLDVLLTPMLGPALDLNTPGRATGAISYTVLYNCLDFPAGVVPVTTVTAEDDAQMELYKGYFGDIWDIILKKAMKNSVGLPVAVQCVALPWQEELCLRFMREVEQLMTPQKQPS
Method: The FAAH (fatty acid amide hydrolase) enzyme preparation was obtained according to the procedure of Lang and Makriyannis et al High Performance Liquid Chromatographic Determination of Anandamide Amidase Activity in Rat Brain Microsomes, Analytical Biochemistry (238): 40-45, 1996.
All compound solutions were made to a concentration of 10 mM in DMSO. Three tests were performed on each compound: hydrolysis, to determine the stability of the compound in assay conditions without the enzyme present; metabolism, to determine the stability of the compound with the enzyme present; and inhibition of anandamide (native substrate) metabolism to arachidonic acid.
Again the reaction mixture was treated in the same manner as described above and the concentrations of AEA and AA were calculated using external standards. Percent inhibition was calculated using the following equation: % Inhib.=(AA15-AA0)i/(AA15-AA0)s where (AA15-AA0)c is the amount of arachidonic acid formed over 15 minutes from AEA with the inhibitor present and (AA15-AA0)s is the amount of arachidonic acid formed over 15 minutes from AEA when the inhibitor is not present. […] The reaction mixtures were treated as described above and the amount of AA formed was calculated. The software package GraphPad Prism was utilized to calculate IC50 and Ki. HPLC Conditions:
Chromatographic separation was achieved using an Ultrasphere ODS Pre-column (4.6×45 mm) from Beckman. Hardware consisted of a Waters Millennium HPLC system with a 20 μL injection loop. The mobile phase consisted of 8.5% o-phosphoric acid:acetonitrile (3:7), run isocratically at a rate of 1 mL/min and detection at 204 nm. The total run time was 8 minutes with AEA eluting at 2.2 minutes and AA at 6.0 minutes.

CB1 cannabinoid receptor = biological target: T3, CB1 cannabinoid receptor (Rattus norvegicus, UniProt P20272); experiment: CB1 receptor binding, [3H]CP-55,940 displacement; conditions: rat forebrain membranes
T3 construct: membranes were prepared from rat forebrain membranes; from tissue; host or cells: rat forebrain
T3 sequence (P20272 whole entry): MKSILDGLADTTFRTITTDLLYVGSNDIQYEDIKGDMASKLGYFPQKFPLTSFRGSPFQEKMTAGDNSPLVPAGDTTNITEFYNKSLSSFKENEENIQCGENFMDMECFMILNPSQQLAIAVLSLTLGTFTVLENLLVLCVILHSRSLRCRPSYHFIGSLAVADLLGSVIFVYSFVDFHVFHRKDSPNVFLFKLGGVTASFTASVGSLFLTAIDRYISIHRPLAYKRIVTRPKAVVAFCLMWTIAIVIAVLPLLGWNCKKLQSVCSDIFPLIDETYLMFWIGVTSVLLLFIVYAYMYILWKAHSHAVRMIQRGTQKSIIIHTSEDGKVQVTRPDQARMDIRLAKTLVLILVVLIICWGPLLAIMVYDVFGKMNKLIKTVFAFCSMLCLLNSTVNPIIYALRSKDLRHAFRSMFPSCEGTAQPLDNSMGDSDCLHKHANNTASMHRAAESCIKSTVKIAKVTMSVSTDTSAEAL
Method: Some inventive analogs were tested for CB2 receptor binding affinity and for CB1 receptor affinity (to determine selectivity). […] The lower the Ki value, the higher the binding affinity. […] For the CB1 receptor binding studies, membranes were prepared from rat forebrain membranes according to the procedure of P. R. Dodd et al, A Rapid Method for Preparing Synaptosomes: Comparison with Alternative Procedures, Brain Res., 107-118 (1981). The binding of the novel analogues to the CB1 cannabinoid receptor was assessed as described in W. A. Devane et al, Determination and Characterization of a Cannabinoid Receptor in a Rat Brain, Mol. Pharmacol., 34, 605-613 (1988) and A. Charalambous et al, 5′-azido Δ^8-THC: A Novel Photoaffinity Label for the Cannabinoid Receptor, J. Med. Chem., 35, 3076-3079 (1992) with the following changes. The above articles are incorporated by reference herein.
Membranes, previously frozen at −80° C., were thawed on ice. To the stirred suspension was added three volumes of TME (25 mM Tris-HCl buffer, 5 mM MgCl2 and 1 mM EDTA) at a pH 7.4. The suspension was incubated at 4° C. for 30 min. At the end of the incubation, the membranes were pelleted and washed three times with TME.
as §1

[2] = with PMSF (second value of cell), read-out: Ki CB1 (nM) (o/w PMSFQ)
[3] = without PMSF (first value of cell), read-out: Ki CB1 (nM) (o/w PMSFQ)
[4] = with PMSF (second value of cell), read-out: Ki CB1 (nM) (o/w PMSF)
[5] = without PMSF (first value of cell), read-out: Ki CB1 (nM) (o/w PMSF)

Row | SMILES | pKi (CB2 receptor) | FAAH % Inhibition [1] | Ki (CB1 cannabinoid receptor; [2]) | Ki (CB1 cannabinoid receptor; [3]) | Ki (CB1 cannabinoid receptor; [4]) | Ki (CB1 cannabinoid receptor; [5])
1 | O=C(CCC/C=C\C/C=C\C/C=C\C/C=C\CCCCc1ccccc1)NCC1CC1 [Compound A1] | 6.75 | 23% | 153 nM | 94.6 nM |  | 
2 | O=C(CCC/C=C\C/C=C\C/C=C\C/C=C\CCc1ccccc1)NCC1CC1 [Compound A2] | 6.77 | 32% | 129 nM | 729 nM |  | 
3 | O=C(CCC/C=C\C/C=C\C/C=C\C/C=C\CCc1ccccc1)Nc1ccc(O)cc1 [Compound A3] | 7.08 | 34% | 58.6 nM | 183 nM |  | 
4 | O=C(CCC/C=C\C/C=C\C/C=C\C/C=C\CCc1ccccc1)Nc1nccs1 [Compound A4] | 5.91 | 58% | 84.3 nM | 1180 nM |  | 
5 | [N-]=[N+]=NCCCC/C=C\C/C=C\C/C=C\C/C=C\CCCC(=O)NCC1CC1 [Compound A6] | 6.37 | 11% | 114 nM | 195 nM |  | 
6 | COc1cc(CNC(=O)CCC/C=C\C/C=C\C/C=C\C/C=C\CCCCN=[N+]=[N-])ccc1O [Compound A7] | 6.52 | 46% | 80.5 nM | 165 nM |  | 
7 | COc1cc(CNC(=O)CCC/C=C\C/C=C\C/C=C\C/C=C\CCCCN=C=S)ccc1O [Compound A12] | 6.26 | 39% | 136 nM | 193 nM |  | 
8 | O=C(CCC/C=C\C/C=C\C/C=C\C/C=C\CCCCCBr)NC1CC1 [Compound A18] | 7.91 | 72% | 0.16 nM | 25.1 nM |  | 
9 | CCCCCC=CCC=CCC=CCC=CCCCCOC(=O)NCC(C)O (stereo not drawn) [Compound B3] | 6.22 | 10% |  |  | 396 nM | 526 nM
10 | CCCCC/C=C\C/C=C\C/C=C\C/C=C\CCCCNC(=O)NC[C@H](C)O [Compound B12] | 6.62 | 17.2% |  |  | 126 nM | 380 nM
11 | CCCCC/C=C\C/C=C\CCCCCCCCOC(=O)NC[C@H](C)O [Compound B14] | 5.65 | 1.20% |  |  | 405 nM | 1350 nM
12 | CC/C=C\C/C=C\C/C=C\CCCCCCCCOC(=O)NC[C@H](C)O [Compound B15] | 6.38 | 6.96% |  |  | 481 nM | 622 nM
